The source of these data is US9862707B2, “TrkA kinase inhibitors, compositions and methods thereof” (Merck Sharp & Dohme Corp., priority 2014, dated 2018).

human TrkA receptor, sequence (P04629 33-796): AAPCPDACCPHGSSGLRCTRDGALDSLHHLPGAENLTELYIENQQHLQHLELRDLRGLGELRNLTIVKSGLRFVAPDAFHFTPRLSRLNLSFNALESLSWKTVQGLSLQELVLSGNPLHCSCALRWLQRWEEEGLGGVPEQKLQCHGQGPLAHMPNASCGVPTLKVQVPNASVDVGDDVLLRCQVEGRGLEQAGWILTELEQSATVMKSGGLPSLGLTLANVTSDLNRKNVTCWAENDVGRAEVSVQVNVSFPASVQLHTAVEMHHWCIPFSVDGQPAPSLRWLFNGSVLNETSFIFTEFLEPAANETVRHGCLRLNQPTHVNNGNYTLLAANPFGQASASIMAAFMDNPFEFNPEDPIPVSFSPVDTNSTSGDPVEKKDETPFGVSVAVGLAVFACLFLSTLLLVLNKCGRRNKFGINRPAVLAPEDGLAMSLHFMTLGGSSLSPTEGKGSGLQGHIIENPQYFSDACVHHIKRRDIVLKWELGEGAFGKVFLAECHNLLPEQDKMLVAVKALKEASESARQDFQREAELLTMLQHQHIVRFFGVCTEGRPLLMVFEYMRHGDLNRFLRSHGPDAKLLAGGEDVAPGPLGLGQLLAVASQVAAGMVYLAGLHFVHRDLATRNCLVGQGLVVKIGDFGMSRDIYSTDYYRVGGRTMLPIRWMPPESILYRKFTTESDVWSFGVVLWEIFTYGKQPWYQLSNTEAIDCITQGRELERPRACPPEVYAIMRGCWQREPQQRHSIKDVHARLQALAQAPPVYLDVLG

The assay concerns the target human TrkA receptor (Homo sapiens (Human), UniProt P04629). Briefly: TrkA functional activity, DiscoverX PathHunter assay. It counts as cell-based. The settings on record: U2OS cells expressing human TrkA-PK, Shc1-EA and p75NTR; compound 1 h, then NGF at ~80% of maximal response for 3 h; luminescence.
Protocol: TrkA functional activity was measured using a DiscoverX PathHunter assay. In this assay, U2OS cells express the human TrkA receptor as a fusion with the weakly complementing fragment of B-galactosidase, which DiscoverX calls “Prolink (PK)”; additionally, Shc1 is fused with a larger fragment, which is called “Enzyme Acceptor (EA)”. Activation of the TrkA receptor, upon NGF addition, results in the kinase domain being phosphorylated, resulting in subsequent recruitment of Shc1-EA protein. That recruitment results in an active B-galactosidase enzyme that is detected by addition of a chemiluminescent substrate. The human p75^NTR protein was also expressed as a co-receptor for NGF.
All reagents were purchased from DiscoverX, except for the receptor agonists (NGF, BDNF, NT3) which were purchased from Peprotech. Cells were expanded and frozen into cryovials, and stored in the vapor phase of liquid nitrogen, and thawed immediately before use. Thawed cells were added to a 384-well plate at 7500 cells/well, and allowed to incubate overnight. Compound at various concentrations was added the following morning and allowed to incubate on cells for 1 h. Then, NGF was added at a concentration sufficient to elicit ˜80% of a maximal response and allowed to incubate for 3 h at ambient temperature. DiscoverX PathHunter detection reagent was then added and the plate was further incubated for 1 h in the dark. The plate was then read via luminescence on the Perkin Elmer Envision.
`NC(=O)Cc1ccc2c(NC(=O)c3cc(-c4ncccn4)c(C(F)(F)F)cc3F)n(-c3ccccc3)nc2c1` [Compound 94, N-(6-(2-Amino-2-oxoethyl)-2-phenyl-2H-indazol-3-yl)-2-fluoro-5-(pyrimidin-2-yl)-4-(trifluoromethyl)benzamide] displayed an IC50 of 4.4 nM. Then `Cn1ccc(-c2cc(C(=O)Nc3c4cccc(CC(N)=O)c4nn3-c3ccccc3)c(F)cc2C(F)(F)F)n1` [Compound 95, N-(7-(2-Amino-2-oxoethyl)-2-phenyl-2H-indazol-3-yl)-2-fluoro-5-(1-methyl-1H-pyrazol-3-yl)-4-(trifluoromethyl)benzamide], with 0.64 nM. Molecule `CNC(=O)Cc1ccc2c(NC(=O)c3cc(-c4ncccn4)c(C(F)(F)F)cc3F)n(-c3ccccc3)nc2c1` [Compound 96, 2-fluoro-N-{6-[2-(methylamino)-2-oxoethyl]-2-phenyl-2H-indazol-3-yl}-5-pyrimidin-2-yl-4-(trifluoromethyl)benzamide] returned an IC50 of 8.9 nM. For `O=C(CO)NCc1ccc2c(NC(=O)c3cc(-c4ncccn4)c(C(F)(F)F)cc3F)n(-c3ccccc3)nc2c1` [Compound 98, 2-Fluoro-N-(6-((2-hydroxyacetamido)methyl)-2-phenyl-2H-indazol-3-yl)-5-(pyrimidin-2-yl)-4-(trifluoromethyl)benzamide] the value was 11 nM. Then `Cn1ccc(-c2cc(C(=O)Nc3c4nccc(CN5C(=O)CNC5=O)c4nn3-c3ccccc3)c(F)cc2C(F)(F)F)n1` [Compound 99, N-(7-((2,5-dioxoimidazolidin-1-yl)methyl)-2-phenyl-2H-pyrazolo[4,3-b]pyridin-3-yl)-2-fluoro-5-(1-methyl-1H-pyrazol-3-yl)-4-(trifluoromethyl)benzamide], with 0.88 nM. As for `Cn1ccc(-c2cc(C(=O)Nc3c4ccc([C@@H](N)C(F)(F)F)cc4nn3-c3ccccc3)ccc2C(F)(F)F)n1` [Compound 100], the IC50 was 2.7 nM. This IC50 is about 3.1-fold higher than that of the molecule before. Then `Cn1ccc(-c2cc(C(=O)Nc3c4ccc([C@H](N)C(F)(F)F)cc4nn3-c3ccccc3)ccc2C(F)(F)F)n1` [Compound 101, (S)—N-(6-(1-Amino-2,2,2-trifluoroethyl)-2-phenyl-2H-indazol-3-yl)-3-(1-methyl-1H-pyrazol-3-yl)-4-(trifluoromethyl)benzamide], with 1.8 nM.

A word on the IC50: it is the concentration that inhibits the measured activity by half.
